Data as given in patent US10105357B2, “Indication of antibiotic drugs for preparation of cancer inhibition pharmaceutical composition” (LAUNX BIOMEDICAL CO., LTD., priority 2014, dated 2018).
Like-named read-outs stand apart in the source and are kept apart here.

Tests used:
cancer cell lines = assay: Cell viability analysis (WST-1) on cancer cell lines; type: cell-based, human; conditions: drug 10 μM, 72 hours, WST-1; Table 3
[1] = test system: HI650 (Lung Adenocarcinoma); assay: Cell viability analysis, lung cancer HI650; type: cell-based, human; conditions: Homo sapiens, NCI-H1650, 72 h
[2] = test system: A549 (Lung Adenocarcinoma); assay: Cell viability analysis, lung cancer A549; type: cell-based, human; conditions: Homo sapiens, A549, 72 h
[3] = test system: AGS (Gastric Adenocarcinoma); assay: Cell viability analysis, gastric cancer AGS; type: cell-based, human; conditions: Homo sapiens, 72 h
[4] = test system: MKN-45 (Gastric Adenocarcinoma); assay: Cell viability analysis, gastric cancer MKN-45; type: cell-based, human; conditions: Homo sapiens, MKN-45, 72 h
[5] = test system: HepG2 (Hepatocellular Carcinoma); assay: Cell viability analysis, hepatic cancer HepG2; type: cell-based, human; conditions: Homo sapiens, HepG2, 72 h
[6] = test system: Hep3B (hepatocellular carcinoma); assay: Cell viability analysis, hepatic cancer Hep3B; type: cell-based, human; conditions: Homo sapiens, 72 h; Hep3B; repeated experiment; read-out: The results of antibiotic drug inhibiting cancer cell lines (cell viability analysis), Hep3B
[7] = test system: LoVo (Colorectal Adenocarcinoma); assay: Cell viability analysis, colon cancer LoVo; type: cell-based, human; conditions: Homo sapiens, LoVo, 72 h
[8] = test system: A375 (Amelanotic Melanoma); assay: Cell viability analysis, skin cancer A375; type: cell-based, human; conditions: Homo sapiens, A-375, 72 h
[9] = test system: BCC (basal cell carcinoma); assay: Cell viability analysis, skin cancer BCC; type: cell-based, human; conditions: Homo sapiens, 72 h; BCC; repeated experiment; read-out: The results of antibiotic drug inhibiting cancer cell lines (cell viability analysis), BCC
[10] = test system: HeLa (Cervix Adenocarcinoma); assay: Cell viability analysis, cervical cancer HeLa; type: cell-based, human; conditions: Homo sapiens, HeLa, 72 h, HeLa
[11] = test system: C-33A (Cervical carcinoma); assay: Cell viability analysis, cervical cancer C-33A; type: cell-based, human; conditions: Homo sapiens, 72 h; C-33A; repeated experiment; read-out: The results of antibiotic drug inhibiting cancer cell lines (cell viability analysis), C-33A
[12] = test system: PC3 (p53−) (Prostate Adenocarcinoma); assay: Cell viability analysis, prostate cancer PC3; type: cell-based, human; conditions: Homo sapiens, 72 h
[13] = test system: TSGH-8301 (Urinary Bladder Carcinoma); assay: Cell viability analysis, bladder cancer TSGH-8301; type: cell-based, human; conditions: Homo sapiens, 72 h
T24 = assay: Cell viability analysis, bladder cancer T24; type: cell-based, human; conditions: Homo sapiens, T-24, 72 h; T24; repeated experiment; read-out: The results of antibiotic drug inhibiting cancer cell lines (cell viability analysis), T24
[14] = test system: MCF7 (Mammary Gland, Adenocarcinoma); assay: Cell viability analysis, breast cancer MCF7; type: cell-based, human; conditions: Homo sapiens, MCF7, 72 h
[15] = test system: MDA-MB-231 (Mammary Gland, Adenocarcinoma); assay: Cell viability analysis, breast cancer MDA-MB-231; type: cell-based, human; conditions: Homo sapiens, MDA-MB-231, 72 h; MDA-MB231; repeated experiment; read-out: The results of antibiotic drug inhibiting cancer cell lines (cell viability analysis), MDA-MB231
AsPC-1 = assay: Cell viability analysis, pancreatic cancer AsPC-1; type: cell-based, human; conditions: Homo sapiens, ASPC1, 72 h; AsPC-1; repeated experiment; read-out: The results of antibiotic drug inhibiting cancer cell lines (cell viability analysis), AsPC-1
NIH: OVCAR-3 = assay: Cell viability analysis, ovarian cancer NIH: OVCAR-3; type: cell-based, human; conditions: Homo sapiens, 72 h; NIH-OVCAR-3; repeated experiment; read-out: The results of antibiotic drug inhibiting cancer cell lines (cell viability analysis), NIH-OVCAR-3
TOV-21G = assay: Cell viability analysis, ovarian cancer TOV-21G; type: cell-based, human; conditions: Homo sapiens, TOV21G, 72 h; TOV-21G; repeated experiment; read-out: The results of antibiotic drug inhibiting cancer cell lines (cell viability analysis), TOV-21G
[16] = test system: SAS (Tongue squamous cell carcinoma); assay: Cell viability analysis, tongue cancer SAS; type: cell-based, human; conditions: Homo sapiens, 72 h; SAS; repeated experiment; read-out: The results of antibiotic drug inhibiting cancer cell lines (cell viability analysis), SAS
[17] = test system: 786-O (Renal adenocarcinoma); assay: Cell viability analysis, renal cancer 786-O; type: cell-based, human; conditions: Homo sapiens, 786-0, 72 h; 786-O; repeated experiment; read-out: The results of antibiotic drug inhibiting cancer cell lines (cell viability analysis), 786-O
[18] = test system: HL-60 (Acute Promyelocytic Leukemia); assay: Cell viability analysis, leukemia HL-60; type: cell-based, human; conditions: Homo sapiens, HL-60, 72 h, drug 10 μM, 72 hours, WST-1, OD450 nm; read-out: cell viability (survival rate), HL-60
[19] = test system: HCT116 (p53+) (Colorectal Carcinoma)

For `CC(C)CN(C[C@@H](O)[C@H](Cc1ccccc1)NC(=O)O[C@H]1CCOC1)S(=O)(=O)c1ccc(N)cc1` [Amprenavir (Agenerase), Amprenavir], the “inhibition effect on different cancer cell lines” value (cancer cell lines) was “significant inhibition effect”, the viability at 10 µM ([1]; H1650, repeated experiment, read-out: The results of antibiotic drug inhibiting cancer cell lines (cell viability analysis), H1650) was 88.1% and the viability at 10 µM ([1]; drug 10 μM, 72 hours, WST-1, OD450 nm, read-out: cell viability (survival rate), H1650) was 69.5%. The viability at 10 µM ([2]; A549, repeated experiment, read-out: The results of antibiotic drug inhibiting cancer cell lines (cell viability analysis), A549) was 79.9%, the viability at 10 µM ([2]; drug 10 μM, 72 hours, WST-1, OD450 nm, read-out: cell viability (survival rate), A549) was 53.7% and the viability at 10 µM ([3]; AGS, repeated experiment, read-out: The results of antibiotic drug inhibiting cancer cell lines (cell viability analysis), AGS) was 98.6%. It also gave a viability at 10 µM ([3]; drug 10 μM, 72 hours, WST-1, OD450 nm, read-out: cell viability (survival rate), AGS) of 58.8%, a viability at 10 µM ([4]; MKN-45, repeated experiment, read-out: The results of antibiotic drug inhibiting cancer cell lines (cell viability analysis), MKN-45) of 103% and a viability at 10 µM ([4]; drug 10 μM, 72 hours, WST-1, OD450 nm, read-out: cell viability (survival rate), MKN-45) of 52.1%. For the same molecule, the viability at 10 µM ([5]; HepG2, repeated experiment, read-out: The results of antibiotic drug inhibiting cancer cell lines (cell viability analysis), HepG2) was 94.5%, the viability at 10 µM ([5]; drug 10 μM, 72 hours, WST-1, OD450 nm, read-out: cell viability (survival rate), HepG2) was 90.9% and the viability at 10 µM [6] was 95.2%. For the same molecule, the viability at 10 µM ([7]; read-out: The results of antibiotic drug inhibiting cancer cell lines (cell viability analysis), LoVo, repeated experiment) was 95.5%, the viability at 10 µM ([7]; read-out: cell viability (survival rate), LoVo, drug 10 μM, 72 hours, WST-1, OD450 nm) was 77.4% and the viability at 10 µM ([8]; A375, repeated experiment, read-out: The results of antibiotic drug inhibiting cancer cell lines (cell viability analysis), A375) was 88.1%. For the same molecule, the viability at 10 µM ([8]; drug 10 μM, 72 hours, WST-1, OD450 nm, read-out: cell viability (survival rate), A375) was 77.6%, the viability at 10 µM [9] was 74.5% and the viability at 10 µM ([10]; repeated experiment, read-out: The results of antibiotic drug inhibiting cancer cell lines (cell viability analysis), HeLa) was 67.9%. For the same molecule, the viability at 10 µM ([10]; drug 10 μM, 72 hours, WST-1, OD450 nm, read-out: cell viability (survival rate), HeLa) was 67.5%, the viability at 10 µM [11] was 109% and the viability at 10 µM ([12]; PC-3, repeated experiment, read-out: The results of antibiotic drug inhibiting cancer cell lines (cell viability analysis), PC-3) was 87.4%. It also gave a viability at 10 µM ([12]; drug 10 μM, 72 hours, WST-1, OD450 nm, read-out: cell viability (survival rate), PC3) of 80.4%, a viability at 10 µM ([13]; TSGH-8301, repeated experiment, read-out: The results of antibiotic drug inhibiting cancer cell lines (cell viability analysis), TSGH-8301) of 96.1% and a viability at 10 µM ([13]; drug 10 μM, 72 hours, WST-1, OD450 nm, read-out: cell viability (survival rate), TSGH) of 57%. For the same molecule, the viability at 10 µM (T24) was 90.5%, the viability at 10 µM ([14]; MCF-7, repeated experiment, read-out: The results of antibiotic drug inhibiting cancer cell lines (cell viability analysis), MCF-7) was 68.3% and the viability at 10 µM ([14]; drug 10 μM, 72 hours, WST-1, OD450 nm, read-out: cell viability (survival rate), MCF7) was 37%. It also gave a viability at 10 µM [15] of 83.5%, a viability at 10 µM (AsPC-1) of 90.4% and a viability at 10 µM (NIH: OVCAR-3) of 106%. The viability at 10 µM (TOV-21G) was 97%, the viability at 10 µM [16] was 83.3% and the viability at 10 µM [17] was 96.7%. It also gave a viability at 10 µM [18] of 111% and a viability [19] of 94.5%.
